Reference: ChEMBL document CHEMBL4346711, “Discovery of coumarin Mannich base derivatives as multifunctional agents against monoamine oxidase B and neuroinflammation for the treatment of Parkinson's disease” (Eur J Med Chem, 2019)
Activity calls are given as the source filed them. The calls are words filed in the database; no cut-off is given here.

How the values were obtained:
[1] = system: Mus musculus; assay: (§1) Ex vivo Inhibition of MAO-B in mid brain homogenates of MPTP-induced C57BL/6 mouse model of Parkinson's disease at 50 mg/kg, ig using p-tyramine as substrate preincubated for 60 mins followed by substrate addition and measured after 30 mins by horse-radish peroxidase-coupled/amplex red reagent-based fluorescence spectrophotometric method; assay type: functional, organism-based
[2] = system: Mus musculus; assay: (§2) Anti-neuroinflammatory activity in po dosed MPTP-induced C57BL/6 mouse of Parkinson's disease assessed as increase in tyrosine hydroxylase positive cells in substantia nigra pretreated for 30 mins followed by MPTP challenge for 7 days and subsequent compound redosing for 5 days measured post-last dose by DAB staining based immunohistochemistry method; assay type: functional, organism-based
[3] = system: Mus musculus; assay: as §1, with “inhibition” for “Inhibition”, “MAO-A” for “MAO-B”; assay type: functional, organism-based
[4] = biological target: T1, Amine oxidase [flavin-containing] B (Homo sapiens, UniProt P27338); assay: Inhibition of recombinant human MAO-B expressed in baculovirus infected BTI insect cells using p-tyramine as substrate preincubated for 60 mins followed by substrate addition and measured after 30 mins by horse-radish peroxidase-coupled amplex red reagent-based fluorescence spectrophotometric method
T1 sequence (P27338 whole entry): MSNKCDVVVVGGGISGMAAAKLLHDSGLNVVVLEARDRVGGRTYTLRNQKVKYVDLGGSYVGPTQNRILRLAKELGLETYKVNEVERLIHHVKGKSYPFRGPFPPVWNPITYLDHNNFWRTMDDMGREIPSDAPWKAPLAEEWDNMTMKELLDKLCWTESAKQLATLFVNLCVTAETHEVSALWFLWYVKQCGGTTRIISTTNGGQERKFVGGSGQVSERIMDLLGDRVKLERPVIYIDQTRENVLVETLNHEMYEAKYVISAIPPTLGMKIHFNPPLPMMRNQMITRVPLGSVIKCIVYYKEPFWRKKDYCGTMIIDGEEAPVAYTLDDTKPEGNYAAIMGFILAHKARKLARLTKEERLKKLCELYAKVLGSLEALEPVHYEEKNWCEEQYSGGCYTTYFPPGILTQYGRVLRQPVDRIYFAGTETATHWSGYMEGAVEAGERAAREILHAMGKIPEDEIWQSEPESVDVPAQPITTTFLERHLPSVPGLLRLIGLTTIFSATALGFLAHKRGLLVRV

[5] = system: Mus musculus; assay: Anti-neuroinflammatory activity in C57BL/6 mouse assessed as reduction in MPTP-induced COX2 expression in mid brain at 50 mg/kg, po pretreated for 30 mins followed by MPTP challenge for 7 days and subsequent compound redosing for 5 days measured post-last dose by Western blotting analysis; assay type: functional, organism-based
[6] = system: Mus musculus; assay: (§3) Anti-parkinson's activity in po dosed MPTP-induced C57BL/6 mouse model of Parkinson's disease assessed as restoration of motor ability by measuring increase in latency to fall pretreated for 30 mins followed by MPTP challenge for 7 days and subsequent compound redosing for 5 days measured post-last dose by rotarod test; assay type: functional, organism-based
[7] = system: SH-SY5Y; assay: Neuroprotection against H2O2-induced cell death in human SH-SY5Y cells assessed as increase in cell viability preincubated for 1 hr followed by H2O2 addition and measured after 24 hrs by MTT assay; assay type: functional, cell-based
[8] = system: Mus musculus; assay: as §3, with “in” for “in po dosed”, “fall at 50 mg/kg, po” for “fall”; assay type: functional, organism-based
[9] = system: Mus musculus; assay: Anti-neuroinflammatory activity in C57BL/6 mouse assessed as reduction in MPTP-induced iNOS expression in mid brain at 50 mg/kg, po pretreated for 30 mins followed by MPTP challenge for 7 days and subsequent compound redosing for 5 days measured post-last dose by Western blotting analysis; assay type: functional, organism-based
[10] = Anti-neuroinflammatory activity in […] cells assessed as inhibition of LPS-induced NO production preincubated for 1 hr followed by LPS stimulation measured after 24 hrs by Griess reagent based assay; assay type: functional, cell-based; details: BV-2
[11] = biological target: T2, Amine oxidase [flavin-containing] A (Homo sapiens, UniProt P21397); assay: Inhibition of recombinant human MAO-A expressed in baculovirus infected BTI insect cells using p-tyramine as substrate preincubated for 60 mins followed by substrate addition and measured after 30 mins by horse-radish peroxidase-coupled amplex red reagent-based fluorescence spectrophotometric method
T2 sequence (P21397 whole entry): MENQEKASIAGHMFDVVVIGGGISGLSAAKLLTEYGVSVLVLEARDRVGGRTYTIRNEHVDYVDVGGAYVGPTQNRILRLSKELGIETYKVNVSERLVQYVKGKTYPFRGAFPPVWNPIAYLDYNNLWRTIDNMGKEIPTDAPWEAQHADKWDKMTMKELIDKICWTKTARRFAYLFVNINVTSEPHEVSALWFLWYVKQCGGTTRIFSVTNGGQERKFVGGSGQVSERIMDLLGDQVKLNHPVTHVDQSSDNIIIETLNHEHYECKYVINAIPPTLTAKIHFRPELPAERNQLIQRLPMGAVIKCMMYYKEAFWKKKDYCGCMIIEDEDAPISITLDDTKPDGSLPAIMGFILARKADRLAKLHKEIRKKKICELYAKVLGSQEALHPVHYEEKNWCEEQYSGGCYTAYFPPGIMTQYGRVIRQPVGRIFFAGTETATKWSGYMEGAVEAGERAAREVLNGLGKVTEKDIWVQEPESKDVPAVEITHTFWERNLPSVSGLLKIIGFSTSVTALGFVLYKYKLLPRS

[12] = organism: Homo sapiens; assay: Selectivity index, ratio of IC50 for recombinant human MAO-A expressed in baculovirus infected BTI insect cells to IC50 for recombinant human MAO-B expressed in baculovirus infected BTI insect cells
[13] = system: Mus musculus; assay: as §2, with “mouse model” for “mouse”, “expression” for “positive cells”, “mid brain” for “substantia nigra”; assay type: functional, organism-based
[14] = system: SH-SY5Y; assay: Neuroprotection against L-glutamic acid-induced cell death in human SH-SY5Y cells assessed as increase in cell viability preincubated for 1 hr followed by L-glutamic acid addition and measured after 24 hrs by MTT assay; assay type: functional, cell-based
[15] = system: Mus musculus; assay: as §3, with “in” for “in po dosed”, “fall at 10 mg/kg, po” for “fall”; assay type: functional, organism-based
[16] = system: Mus musculus; assay: as §2, with “in” for “in po dosed”, “nigra at 10 mg/kg, po” for “nigra”; assay type: functional, organism-based

| SMILES | IC50 [4] [µM] | EC50 [7] [µM] | IC50 [10] [µM] | IC50 [11] [µM] | Ratio IC50 [12] | EC50 [14] [µM] | further results |
| --- | --- | --- | --- | --- | --- | --- | --- |
| Cc1cc(O)cc2oc(=O)c(C(=O)CCN(C)C)cc12 | 3.66 | 19.7 | 0.22 | > 200 | > 100 | 25.7 | inhibition [1]: Active; Activity [2]: Active; inhibition [3]: inactive; Activity [5]: Active; Activity [6]: Dose-dependent effect; Activity [8]: Active; Activity [9]: Active; Activity [13]: Active |
| CN(C)CCC(=O)c1cc2cc(Br)c(O)c(Br)c2oc1=O | > 200 | > 100 | > 100 | > 200 |  |  |  |
| C#CCN(C)[C@H](C)Cc1ccccc1 |  |  |  |  |  |  | Activity [15]: Active; Activity [16]: Active |
| COc1cc(/C=C/C(=O)CC(=O)/C=C/c2ccc(O)c(OC)c2)ccc1O [CURCUMIN] |  |  | 1.58 |  |  |  |  |
| Cc1cc(O)cc2oc(=O)c(C(=O)CCN3CCCC3)cc12 | 43.7 |  | > 100 | 173 | 3.97 | > 100 |  |
| COc1ccc2cc(C(=O)CCN3CCCC3)c(=O)oc2c1 | 18.1 | > 100 | > 100 | 53.1 | 2.93 |  |  |
| O=C(CCN1CCOCC1)c1cc2ccc(O)cc2oc1=O | 151 | > 100 | 0.01 | 111 | 0.73 | 22.9 |  |
| CN(C)CCC(=O)c1cc2ccc(O)cc2oc1=O | 71.4 |  | 0.56 | 110 | 1.53 | > 100 |  |
| O=C(CCN1CCCC1)c1cc2cc(Br)c(O)c(Br)c2oc1=O | > 200 | 75.1 | > 100 | 155 |  |  |  |
| COc1ccc2cc(C(=O)CCN3CCOCC3)c(=O)oc2c1 | 4.62 |  | 8.61 | 2.46 | 0.53 | > 100 |  |
| Cc1cc(O)cc2oc(=O)c(C(=O)CCN3CCCCC3)cc12 | 119 | 83.7 | 0.11 | 136 | 1.14 | > 100 |  |
| O=C(CCN1CCOCC1)c1cc2cc(Br)c(O)c(Br)c2oc1=O | 14.1 | > 100 | 24.6 | 34.1 | 2.42 |  |  |
| O=C(CCN1CCCC1)c1cc2ccc(O)cc2oc1=O | > 200 |  | 0.61 | > 200 |  | > 100 |  |
| COc1ccc2cc(C(=O)CCN3CCCCC3)c(=O)oc2c1 | 20.1 | > 100 | 0.02 | 12.2 | 0.61 |  |  |
| O=C(CCN1CCN(Cc2ccccc2)CC1)c1cc2ccc(O)cc2oc1=O | 41.1 | 1.82 | 3.64 | 108 | 2.63 | > 100 |  |
| CCN(CC)CCC(=O)c1cc2ccc(O)cc2oc1=O | 94 |  | 2.67 | 89.9 | 0.96 | 13 |  |
| Cc1cc(O)cc2oc(=O)c(C(=O)CCN3CCOCC3)cc12 | 36 | > 100 | 0.28 | 98.5 | 2.74 | > 100 |  |
| O=C(CCN1CCCCC1)c1cc2ccc(O)cc2oc1=O | > 200 | > 100 | 2.13 | > 200 |  | 45.4 |  |
| COc1ccc2cc(C(=O)CCN(C)C)c(=O)oc2c1 | 21.1 | > 100 | > 100 | 7.63 | 0.36 |  |  |
